In ChEMBL document CHEMBL5107956, “Natural products from mangrove sediments-derived microbes: Structural diversity, bioactivities, biosynthesis, and total synthesis” (Eur J Med Chem, 2022):
Values after ≈ are worked out from the molar mass of the structure shown.

What was measured:
HeLa = assay: Cytotoxicity against human HeLa cells assessed as cell growth inhibition; type: functional, cell-based
MCF7 = assay: Cytotoxicity against human MCF7 cells assessed as cell growth inhibition; type: functional, cell-based
Influenza A virus = assay: Antiviral activity against Influenza A virus H1N1; type: functional, organism-based
HL-60 = assay: Antiproliferative activity against human HL-60 cells assessed as cell growth inhibition measured after 72 hrs by CCK-8 assay; type: functional, cell-based; conditions: HL-60, 72 h
Staphylococcus aureus [1] = assay: Antibacterial activity against Staphylococcus aureus S014 assessed as bacterial cell growth inhibition by agar dilution method; type: functional
Bacillus subtilis = assay: Antibacterial activity against Bacillus subtilis S028 assessed as bacterial cell growth inhibition by agar dilution method; type: functional
Escherichia coli = assay: Antibacterial activity against Escherichia coli S002 assessed as bacterial cell growth inhibition by agar dilution method; type: functional
Candida albicans = assay: Antifungal activity against Candida albicans ATCC 10231 assessed as fungal growth inhibition by agar dilution method; type: functional
[2] = biological target: Prostaglandin G/H synthase 2 (Homo sapiens) (UniProt P35354); assay: Inhibition of COX2 (unknown origin) at 20 nM relative to control
HCT-116 = assay: Cytotoxicity against human HCT-116 cells assessed as cell growth inhibition by MTT assay; type: functional, cell-based
Staphylococcus aureus [3] = assay: Antibacterial activity against methicillin-resistant Staphylococcus aureus assessed as bacterial cell growth inhibition by agar dilution method; type: functional

Sequence of Prostaglandin G/H synthase 2 (Homo sapiens) (P35354 whole entry, looked up): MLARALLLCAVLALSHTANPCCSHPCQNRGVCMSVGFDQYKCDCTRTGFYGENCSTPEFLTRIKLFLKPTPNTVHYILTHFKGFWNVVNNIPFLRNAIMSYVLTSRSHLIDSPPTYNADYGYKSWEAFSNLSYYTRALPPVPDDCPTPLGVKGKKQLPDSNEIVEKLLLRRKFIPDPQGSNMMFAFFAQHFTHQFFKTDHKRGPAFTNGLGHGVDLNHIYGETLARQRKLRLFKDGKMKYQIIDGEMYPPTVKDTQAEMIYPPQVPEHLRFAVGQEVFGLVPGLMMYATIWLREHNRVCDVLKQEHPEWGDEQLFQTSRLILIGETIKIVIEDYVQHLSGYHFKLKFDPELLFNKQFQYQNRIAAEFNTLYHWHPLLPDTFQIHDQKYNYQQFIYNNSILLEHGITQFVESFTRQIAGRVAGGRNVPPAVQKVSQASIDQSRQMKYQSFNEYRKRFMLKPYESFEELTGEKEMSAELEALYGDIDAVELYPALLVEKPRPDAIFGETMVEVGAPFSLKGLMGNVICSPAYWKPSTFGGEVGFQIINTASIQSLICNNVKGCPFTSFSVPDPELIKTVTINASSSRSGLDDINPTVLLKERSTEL

CC[C@@H]1[C@@H](C)O[C@@](OC)([C@@H](C)[C@H](O)[C@H](C)[C@H]2OC(=O)/C=C/C=C/[C@H](C)[C@@H]([C@@H](C)[C@@H](O)[C@H](C)[C@@]3(OC)C[C@@H](O[C@H]4C[C@H](O)[C@H](O)[C@H](C)O4)[C@H](CC)[C@@H](C)O3)OC(=O)/C(C)=C/C=C/[C@@H]2C)C[C@H]1O[C@H]1C[C@H](O)[C@H](O)[C@H](C)O1
IC50 (HeLa): 0.19 µM | IC50 (MCF7): 0.19 µM

CC(=O)C[C@H](c1nc2ccccc2c(=O)n1[C@@H]1C[C@]2(OC1=O)c1ccccc1N1C(=O)C(C)(C)N[C@H]12)C(C)C
IC50 (Influenza A virus): 82 µM

COc1nc(C/C=C(\C)C/C=C/C(C)=C/[C@@H](C)/C=C(\C)[C@H](C)O)c(C)c(O)c1OC
IC50 (HL-60): < 0.1 µM

C/C1=C\C=C\[C@H](C)[C@@H](O)C[C@H](O)[C@@H](C)[C@H](O)CC[C@H](C)[C@@H](O)C[C@@]2(O)O[C@@H](C[C@@H](OC(=O)CCCCC(C)C)C[C@H](O)C[C@@H](O)C[C@H](O)/C(C)=C/C=C/[C@@H](C)[C@H]([C@@H](C)CCC/C=C/CCCNC(=N)N)OC1=O)C[C@@H](O)[C@@H]2O
MIC (Staphylococcus aureus [1]): 0.39 mg/L (≈ 0.352 µM) | MIC (Bacillus subtilis): 0.2 mg/L (≈ 0.18 µM) | MIC (Escherichia coli): 3.13 mg/L (≈ 2.82 µM) | MIC (Candida albicans): 1.65 mg/L (≈ 1.49 µM)

CCCC(CC)COC(=O)CC(=O)OC1CC(O)CC(O)CC(O)/C(C)=C/C=C/C(C)C(C(C)CCC/C=C/CCCN/C(N)=N/C)OC(=O)/C(C)=C/C=C/C(C)C(O)CC(O)C(C)C(O)CCC(C)C(O)CC2(O)OC(C1)CC(O)C2O (centres undefined)
MIC (Candida albicans): 1.65 mg/L (≈ 1.4 µM)

CC[C@@H]1[C@@H](C)O[C@@](O)([C@@H](C)[C@H](O)[C@H](C)[C@H]2OC(=O)/C=C/C=C/[C@H](C)[C@@H]([C@@H](C)[C@@H](O)[C@H](C)[C@@]3(O)C[C@@H](O[C@H]4C[C@H](O)[C@H](O)[C@H](C)O4)[C@H](CC)[C@@H](C)O3)OC(=O)/C(C)=C/C=C/[C@@H]2C)C[C@H]1O[C@H]1C[C@H](O)[C@H](O)[C@H](C)O1
IC50 (HeLa): 0.19 µM | IC50 (MCF7): 0.19 µM

CC(=O)C[C@H](c1nc2ccccc2c(=O)n1[C@@H]1C[C@]2(OC1=O)c1ccccc1N1C(=O)[C@H](C)N[C@H]12)C(C)C
IC50 (Influenza A virus): 82 µM

O=C1NC(=O)[C@H](Cc2c[nH]c3ccccc23)n2c1nc1ccccc1c2=O
IC50 (Influenza A virus): 82 µM

COc1nc(C/C=C(\C)C/C=C/C(C)=C/[C@@H](C)/C=C/[C@@H](C)OC)c(C)c(O)c1OC
IC50 (HL-60): < 0.1 µM

CCCC(CC)COC(=O)CC(=O)OC1CC(O)CC(O)CC(O)/C(C)=C/C=C/C(C)C(C(C)CCC/C=C/CCCN/C(=N/C)NC)OC(=O)/C(C)=C/C=C/C(C)C(O)CC(O)C(C)C(O)CCC(C)C(O)CC2(O)OC(C1)CC(O)C2O (centres undefined)
MIC (Candida albicans): 1.65 mg/L (≈ 1.38 µM)

CC(C)=CCc1cc(C[C@@]2(CC=C(C)C)OC(=O)C(O)C2c2ccccc2)ccc1O (some centres undefined)
inhibition [2]: 66.3%

C/N=C(/NC)NCCC/C=C/CCC[C@H](C)[C@@H]1OC(=O)/C(C)=C/C=C/[C@H](C)[C@@H](O)C[C@H](O)[C@@H](C)[C@H](O)CC[C@H](C)[C@@H](O)C[C@@]2(O)O[C@@H](C[C@@H](OC(=O)CCCCCCCCC(C)C)C[C@H](O)C[C@@H](O)C[C@H](O)/C(C)=C/C=C/[C@H]1C)C[C@@H](O)[C@@H]2O
MIC (Staphylococcus aureus [1]): 0.39 mg/L (≈ 0.327 µM) | MIC (Bacillus subtilis): 0.2 mg/L (≈ 0.168 µM) | MIC (Escherichia coli): 3.13 mg/L (≈ 2.62 µM) | MIC (Candida albicans): 1.65 mg/L (≈ 1.38 µM)

C/N=C(\N)NCCC/C=C/CCCC(C)C1OC(=O)/C(C)=C/C=C/C(C)C(O)CC(O)C(C)C(O)CCC(C)C(O)CC2(O)OC(CC(OC(=O)CC(=O)O)CC(O)CC(O)CC(O)/C(C)=C/C=C/C1C)CC(O)C2O (centres undefined)
IC50 (HCT-116): 1.81 mg/L (≈ 1.67 µM) | MBC (Staphylococcus aureus [3]): 8 mg/L (≈ 7.39 µM) | MIC (Staphylococcus aureus [3]): 4 mg/L (≈ 3.7 µM) | MIC (Candida albicans): 1.65 mg/L (≈ 1.52 µM)

C/N=C(\NC)NCCC/C=C/CCC[C@H](C)[C@@H]1OC(=O)/C(C)=C/C=C/[C@H](C)[C@@H](O)C[C@H](O)[C@@H](C)[C@H](O)CC[C@H](C)[C@@H](O)C[C@@]2(O)O[C@@H](C[C@@H](O)C[C@H](OC(=O)CC(=O)O)C[C@@H](O)C[C@H](O)/C(C)=C/C=C/[C@H]1C)C[C@@H](O)[C@@H]2O
MIC (Staphylococcus aureus [1]): 0.39 mg/L (≈ 0.356 µM) | MIC (Bacillus subtilis): 0.2 mg/L (≈ 0.182 µM) | MIC (Escherichia coli): 3.13 mg/L (≈ 2.85 µM) | MIC (Candida albicans): 1.65 mg/L (≈ 1.5 µM)

CCCC(CC)COC(=O)CC(=O)OC1CC(O)CC2CC(O)C(O)C(O)(CC(O)C(C)CCC(O)C(C)C(O)CC(O)C(C)/C=C/C=C(\C)C(=O)OC(C(C)CCC/C=C/CCCN/C(N)=N\C)C(C)/C=C/C=C(\C)C(O)CC(O)C1)O2 (centres undefined)
MIC (Staphylococcus aureus [1]): 0.39 mg/L (≈ 0.33 µM) | MIC (Bacillus subtilis): 0.2 mg/L (≈ 0.169 µM) | MIC (Escherichia coli): 3.13 mg/L (≈ 2.65 µM) | MIC (Candida albicans): 1.65 mg/L (≈ 1.4 µM)

CC(C)=C1NC(=O)[C@@H](C[C@]2(O)c3ccccc3N3C(=O)[C@H](C)N[C@H]32)n2c1nc1ccccc1c2=O
IC50 (Influenza A virus): 82 µM

C/C=C/[C@H](OC)[C@H](C)/C=C(C)/C=C/C/C(C)=C/Cc1nc(OC)c(OC)c(O)c1C
IC50 (HL-60): < 0.1 µM
